According to paper PMC8123621, “Development of Novel Potential Pleiotropic Compounds of Interest in Alzheimer’s Disease Treatment through Rigidification Strategy” (Molecules, 2021):

Columns and labels:
[1] = biological target: T1, hAChE (AChE from human erythrocytes) (Homo sapiens, UniProt P22303); experiment: biochemical; conditions: for inhibition at 1 µM: read-out: hAChE % Inhibition at 10^−6 M; for IC50: mean ± SEM of three experiments, read-out: hAChE IC50 (nM) (n = 3)
T1 construct: AChE from human erythrocytes; purchased Sigma Aldrich; host or cells: human erythrocytes (tissue-derived enzyme)
Method: (§1) The inhibitory activity of novel analogs towards hAChE was evaluated according to the Ellman test.
Inhibitory capacity of compounds on AChE biological activity was evaluated through the use of the spectrometric method of Ellman. Acetylthiocholine iodide and 5,5-dithiobis-(2-nitrobenzoic) acid (DTNB) were purchased from Sigma Aldrich. AChE from human erythrocytes (buffered aqueous solution, ≥500 units/mg protein (BCA), Sigma Aldrich) was diluted in 20 mM HEPES buffer pH 8, 0.1% Triton X-100 such as to have enzyme solution with 0.25 unit/mL enzyme activity. In the procedure, 100 μL of 0.3 mM DTNB dissolved in phosphate buffer pH 7.4 were added into the 96 wells plate followed by 50 μL of test compound solution and 50 μL of enzyme ([…]). After 5 min of preincubation at 25 °C, the reaction was then initiated by the injection of 50 μL of 1 mM acetylthiocholine iodide solution. […] Assays were performed with a blank containing all components except acetylthiocholine, in order to account for non-enzymatic reaction. The reaction slopes were compared and the percent inhibition due to the presence of test compounds was calculated by the following expression: 100 − (vi/v0 × 100) where vi is the rate calculated in the presence of inhibitor and v0 is the enzyme activity.

[2] = biological target: T2, human 5-HT4R (5-HT4(b) membrane preparations) (Homo sapiens, UniProt Q13639); experiment: h5-HT4R radioligand displacement ([3H]-GR113808); type: binding; conditions: for inhibition at 1 µM: 10^−6 M, 0.5 nM [3H]-GR113808
T2 construct: purchased Eurofins HTS110M
Method: as §1
At the end of the incubation, homogenates were filtered through Whatman GF/C filters (Alpha Biotech) presoaked with 0.5% polyethylenimine using a Brandel cell harvester. Filters were subsequently washed three times with 1 mL of ice-cold 25 mM Tris buffer (pH 7.4, 4 °C). Non-specific binding was evaluated in parallel in the presence of 30 µM serotonin.
(§2) For some of these compounds, affinity constants were calculated from five-point inhibition curves using the GraphPad Prism 6 software and expressed as Ki ± SD.

[3] = biological target: T3, human 5-HT6 receptors (Homo sapiens, UniProt P50406); experiment: h5-HT6R radioligand displacement ([3H]-LSD); type: binding; conditions: 10^−6 M; 2.5 nM [3H]-LSD
T3 construct: purchased Perkin Elmer RBHS6M; host or cells: HEK-293 cells, transient expression
Method: as §1
Drugs were evaluated through their possibility to compete for the binding of [^3H]-LSD on membranes of HEK-293 cells transiently expressing the human 5-HT6 receptors (ref. RBHS6M, Perkin Elmer). […] At the end of the incubation, the homogenates were then filtered through Whatman GF/C filters and washed five times with ice-cold 25 mM Tris-HCl buffer. Non-specific binding was evaluated in the presence of 100 µM serotonin. Radioactivity associated to proteins was then quantified and expressed as the percentage of inhibition of the drugs under study.
as §2

[4] = test system: scopolamine induced deficit; design: method as in PMID 31316368; conditions: model of scopolamine induced deficit; cited from earlier work

T3 sequence (P50406 whole entry): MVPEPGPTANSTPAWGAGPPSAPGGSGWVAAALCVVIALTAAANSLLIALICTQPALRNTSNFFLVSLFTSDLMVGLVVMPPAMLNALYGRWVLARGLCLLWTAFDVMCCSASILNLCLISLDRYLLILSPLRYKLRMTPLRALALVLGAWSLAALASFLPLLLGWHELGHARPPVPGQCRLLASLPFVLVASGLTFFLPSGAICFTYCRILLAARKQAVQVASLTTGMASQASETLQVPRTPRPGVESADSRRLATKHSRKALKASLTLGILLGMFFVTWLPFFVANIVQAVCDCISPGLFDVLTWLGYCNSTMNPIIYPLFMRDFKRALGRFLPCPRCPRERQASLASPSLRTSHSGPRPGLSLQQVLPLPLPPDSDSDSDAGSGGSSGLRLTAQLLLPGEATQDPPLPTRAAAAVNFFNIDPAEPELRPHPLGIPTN
T2 sequence (Q13639 whole entry): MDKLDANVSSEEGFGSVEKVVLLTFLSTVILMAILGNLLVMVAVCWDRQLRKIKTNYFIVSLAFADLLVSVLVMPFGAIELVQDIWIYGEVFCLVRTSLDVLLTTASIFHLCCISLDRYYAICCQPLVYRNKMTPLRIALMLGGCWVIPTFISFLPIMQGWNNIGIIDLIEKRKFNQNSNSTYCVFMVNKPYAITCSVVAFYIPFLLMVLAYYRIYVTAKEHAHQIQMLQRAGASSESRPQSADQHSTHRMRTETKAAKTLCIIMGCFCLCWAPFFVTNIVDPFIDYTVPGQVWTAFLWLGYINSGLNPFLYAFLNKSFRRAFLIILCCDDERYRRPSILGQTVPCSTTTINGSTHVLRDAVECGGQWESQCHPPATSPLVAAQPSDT
T1 sequence (P22303 32-617 isoform P22303-2 limits assumed): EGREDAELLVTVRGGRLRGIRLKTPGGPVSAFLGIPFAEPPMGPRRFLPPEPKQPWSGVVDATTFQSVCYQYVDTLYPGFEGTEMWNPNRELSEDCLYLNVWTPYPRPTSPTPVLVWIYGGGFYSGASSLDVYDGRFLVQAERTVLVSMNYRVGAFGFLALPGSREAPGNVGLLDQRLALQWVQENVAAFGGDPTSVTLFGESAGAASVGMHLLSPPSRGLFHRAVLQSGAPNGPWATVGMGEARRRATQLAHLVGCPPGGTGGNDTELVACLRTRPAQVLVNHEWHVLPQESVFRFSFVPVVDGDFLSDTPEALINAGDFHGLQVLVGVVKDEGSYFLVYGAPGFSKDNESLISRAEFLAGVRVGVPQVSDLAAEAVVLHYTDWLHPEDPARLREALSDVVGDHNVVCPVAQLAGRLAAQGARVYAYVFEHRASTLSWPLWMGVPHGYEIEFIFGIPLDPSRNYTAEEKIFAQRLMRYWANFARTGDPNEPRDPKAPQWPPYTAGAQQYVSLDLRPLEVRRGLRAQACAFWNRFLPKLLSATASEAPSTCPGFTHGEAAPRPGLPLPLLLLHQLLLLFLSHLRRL

SMILES | inhibition at 1 µM [1] [%] | inhibition at 1 µM [2] [%] | inhibition at 1 µM [3] [%] | IC50 [1] [nM] | in vivo anti-amnesic effect [4] | Ki [2] [nM]
COc1cc(N)c(Cl)cc1-c1nn(C)cc1CC1CCN(CC2CCCCC2)CC1 [3a, 2-chloro-4-(4-((1-(cyclohexylmethyl)piperidin-4-yl)methyl)-1-methyl-1H-pyrazol-3-yl)-5-methoxyaniline] | 34 | 34 | 2 |  |  | 
COc1cc(N)c(Cl)cc1-c1nn(C)cc1CC1CCN(Cc2cccc(C)c2)CC1 [3b, 2-chloro-5-methoxy-4-(1-methyl-4-((1-(3-methylbenzyl)piperidin-4-yl)methyl)-1H-pyrazol-3-yl)aniline] | 76 | 20 | 68 | 110 ± 4 |  | 
COc1cc(NC(C)=O)c(Cl)cc1-c1cc(OCC2CCN(Cc3cccc(C)c3)CC2)n(C)n1 [12b, N-(2-chloro-5-methoxy-4-(1-methyl-5-((1-(3-methylbenzyl)piperidin-4-yl)methoxy)-1H-pyrazol-3-yl)phenyl)acetamide] | 15 | 9 | 0 |  |  | 
Cc1cccc(CN2CCC(COc3cc(-c4ccccc4)nn3C)CC2)c1 [12c, 4-(((1-methyl-3-phenyl-1H-pyrazol-5-yl)oxy)methyl)-1-(3-methylbenzyl)piperidine] | 15 | 10 | 6 |  |  | 
COc1ccc(-c2cc(OCC3CCN(Cc4cccc(C)c4)CC3)n(C)n2)cc1OC [12d, 4-(((3-(3,4-dimethoxyphenyl)-1_methyl-1H-pyrazol-5-yl)oxy)methyl)-1-(3-methylbenzyl)piperidine] | 6 | 9 | 9 |  |  | 
COc1cc(N)c(Cl)cc1C(=O)CCC1CCN(CC2CCCCC2)CC1 [Donecopride, donecopride, reference compound] | 96 | 100 | 30 |  |  | 
Fc1ccc2c(CCNCc3cccc(OCC(F)(F)C(F)F)c3)c[nH]c2c1 [Idalopirdine, idalopirdine, reference compound] |  |  | 106 |  |  | 
COc1cc(N)c(Cl)cc1C(=O)CCC1CCN(Cc2cccc(C)c2)CC1 [MR33372, reference compound] |  | 98 | 80 |  | anti-amnesic effect | 
CCCCN1CCC(CCC(=O)c2cc(Cl)c(N)cc2OC)CC1 [RS67333, reference compound] |  | 100 |  |  |  | 
COc1cc(NC(C)=O)c(Cl)cc1-c1nn(C)cc1CC1CCN(CC2CCCCC2)CC1 [compound 6, N-(2-chloro-4-(4-((1-(cyclohexylmethyl)piperidin-4-yl)methyl)-1-methyl-1H-pyrazol-3-yl)-5-methoxyphenyl)acetamide] | 31 | 16 | 0 |  |  | 
COc1cc(NC(C)=O)c(Cl)cc1C(=O)CCC1CCN(CC2CCCCC2)CC1 [compound 7, N-(2-chloro-4-(3-(1-(cyclohexylmethyl)piperidin-4-yl)propanoyl)-5-methoxyphenyl)acetamide] | 98 | 94 |  | 34 ± 5 |  | 300
